Measurements published in patent US7928106B2, “Aza-pyridopyrimidinone derivatives” (Hoffmann-La Roche Inc., priority 2007, dated 2011).

Biological target: T1, HM74A receptor (Homo sapiens, UniProt Q8TDS4)
T1 construct: expressed in transfected cells; host or cells: HEK-293 cells (stably transfected), membrane preparation
Experiment: Primary radiolabelled ligand competition binding assay ([3H]-nicotinic acid)
Details: inhibition of [3H]-nicotinic acid binding, membranes of HEK-293 cells stably transfected with the HM74A receptor
Protocol: Primary Radiolabelled Ligand Competition Binding Assay
Nicotinic acid binding assays were performed with membrane preparations. A cell pellet containing 1×10^8 HEK-293 cells, stably transfected with the HM74A receptor, was resuspended in 3 ml of ice cold Dounce Buffer (10 mM Tris-Cl pH 7.6, 0.5 mM MgCl2) supplemented with Roche protease inhibitor cocktail and homogenized at high speed on a Polytron homogenizer two times for 20 sec on ice. Nuclei and unbroken cells were removed by centrifugation for 5 min at 1,000×g after the addition of 1 ml of tonicity restoration buffer (10 mM Tris pH 7.6, 0.5 mM MgCl2, 600 mM NaCl). The homogenate was centrifuged at 60,000×g for 30 min and pellets were resuspended in Tris buffer (50 mM Tris pH 7.4, containing protease inhibitors). Binding reactions contained 20 µg membranes as determined by BCA protein assay (Pierce), 50 nM [^3H]-nicotinic acid (Amersham) with or without compound addition in 250 μl of binding buffer (50 mM Tris pH 7.4, 2 mM MgCl2, 0.02% CHAPS). […] Bound [^3H]-nicotinic acid was determined by scintillation counting using Top Count NXT (PerkinElmer). […] The effects of compounds were expressed as % inhibition of [^3H]-nicotinic acid binding. Sigmoidal curves were fitted using the XLfit3 program (ID Business Solutions Ltd. UK) and IC50 values determined.

T1 sequence (Q8TDS4 whole entry): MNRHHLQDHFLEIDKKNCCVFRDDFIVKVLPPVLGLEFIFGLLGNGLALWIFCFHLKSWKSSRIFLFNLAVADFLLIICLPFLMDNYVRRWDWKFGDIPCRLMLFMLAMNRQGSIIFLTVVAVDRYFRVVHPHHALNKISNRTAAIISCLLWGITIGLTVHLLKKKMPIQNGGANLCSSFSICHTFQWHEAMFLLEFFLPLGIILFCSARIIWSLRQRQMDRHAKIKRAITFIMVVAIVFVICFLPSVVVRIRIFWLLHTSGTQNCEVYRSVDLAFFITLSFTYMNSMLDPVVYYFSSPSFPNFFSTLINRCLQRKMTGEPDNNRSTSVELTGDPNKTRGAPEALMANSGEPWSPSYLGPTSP

| SMILES | IC50 [nM] |
| --- | --- |
| O=c1[nH]c(COCCc2cc(F)ccc2F)nc2nccnc12 [Example 2, 2-[2-(2,5-Difluoro-phenyl)-ethoxymethyl]-3H-pteridin-4-one] | 2390 |
| O=c1[nH]c(COCCc2cccc(Cl)c2)nc2nnccc12 [Example 7, 7-[2-(3-Chloro-phenyl)-ethoxymethyl]-6H-pyrimido[4,5-c]pyridazin-5-one] | 668 |
